# Measured values taken from US20230398101A1, “Co-agents as Therapy Against Anaerobic Pathogens” (priority 2022, published 2023).
# Like-named read-outs stand apart in the source and are kept apart here.
# Tests used:
# Clostridium perfringens = assay: microbe, parasite or virus in culture; assay type: cell-based; conditions: for MIC vs clinical breakpoint (susceptibility): anaerobic (Table 17)
# Clostridium septicum = assay: Anaerobic agar-dilution AST (MIC, checkerboard FIC); assay type: cell-based; conditions: for MIC vs clinical breakpoint (susceptibility): anaerobic (Table 17); for MIC: Clostridium septicum
# [1] = test system: Peptostreptococcus anaerobius; assay: as above; assay type: cell-based; conditions: Peptostreptococcus anaerobious 807256
# Streptococcus mutans = assay: as above; assay type: cell-based; conditions: strain UA 159, anaerobic
# [2] = test system: Bacteroides thetaiotaomicron; assay: microbe, parasite or virus in culture; assay type: cell-based; conditions: for MIC: anaerobic
# Phocaeicola vulgatus = assay: Anaerobic agar-dilution AST (MIC, checkerboard FIC); assay type: cell-based; conditions: for MIC vs clinical breakpoint (susceptibility): anaerobic (Table 17)
# [3] = test system: Parabacteroides distasonis; assay: as above; assay type: cell-based
# Porphyromonas gingivalis = assay: as above; assay type: cell-based; conditions: ATCC33277
# [4] = test system: Aggretibacter actinomycetemcomitans; assay: as above; assay type: cell-based; conditions: strain D751, anaerobic
# Escherichia coli = assay: Aerobic agar-dilution AST of facultative anaerobes (MIC, checkerboard FIC); assay type: cell-based
# Acinetobacter baumannii = assay: as above; assay type: cell-based
# [5] = test system: Lactobacillus delbrueckii; assay: AST (MIC) of beneficial or mutualistic facultative anaerobic bacteria; assay type: cell-based
# Lactobacillus paracasei = assay: as above; assay type: cell-based; conditions: Lacticaseibacillus paracasei
# Lactobacillus plantarum = assay: as above; assay type: cell-based; conditions: Lactiplantibacillus plantarum
# [6] = test system: Leuconostoc mesenteroides; assay: as above; assay type: cell-based
# Pediococcus acidilactici = assay: as above; assay type: cell-based
# Enterococcus faecium = assay: Aerobic agar-dilution AST of facultative anaerobes (MIC, checkerboard FIC), also at pH 5, 7, 8; assay type: cell-based; conditions: Enterococcus faecium 51559
# [7] = test system: Burkholderia thailandensis; assay: microbe, parasite or virus in culture; assay type: cell-based; conditions: ATCC700388, pH 7
# [8] = test system: facultative anaerobic pathogens; assay: microbe, parasite or virus in culture; assay type: cell-based
# Staphylococcus aureus = assay: Post-antibiotic effect (PAE) in vitro, viable counts; conditions: Staphylococcus aureus ATCC 33591 (beta-lactam resistant)
compound,measurement,setting,value
"C[C@@H]1O[C@@H]1P(=O)(O)O [F, fosfomycin sodium]",MIC vs clinical breakpoint (susceptibility),Clostridium perfringens; Clostridium perfringens 2-0246-4,+
same,MIC vs clinical breakpoint (susceptibility),Clostridium perfringens; Clostridium perfringens 11-46,+
same,MIC vs clinical breakpoint (susceptibility),Clostridium perfringens; Clostridium perfringens 11-50,+
same,MIC vs clinical breakpoint (susceptibility),Clostridium perfringens; Clostridium perfringens 11-61,+
same,MIC,"Clostridium perfringens; Clostridium perfringens 12-117, anaerobic",16 mg/L
same,MIC vs clinical breakpoint (susceptibility),Clostridium perfringens; Clostridium perfringens 12-117,+
same,MIC,"Clostridium perfringens; Clostridium perfringens, Clostridium perfringens 11-46, anaerobic",32 mg/L
same,MIC,"Clostridium perfringens; Clostridium perfringens, Clostridium perfringens 11-50, anaerobic",8 mg/L
same,MIC,"Clostridium perfringens; Clostridium perfringens, Clostridium perfringens 11-61, anaerobic",16 mg/L
same,MIC,"Clostridium perfringens; Clostridium perfringens, Clostridium perfringens 12-117, anaerobic",32 mg/L
same,MIC,"Clostridium perfringens; Clostridium perfringens, strain 2-0246-4, anaerobic",16 mg/L
same,MIC,"Clostridium perfringens; Clostridium perfringens, strain 11-50, anaerobic",16 mg/L
same,MIC,"Clostridium perfringens; Clostridium perfringens, strain 12-117, anaerobic",32 mg/L
same,MIC,"Clostridium perfringens; strain 2-0246-4, anaerobic",8 mg/L
same,MIC,"Clostridium perfringens; strain 11-50, anaerobic",8 mg/L
same,MIC,"Clostridium perfringens; strain 12-117, anaerobic",16 mg/L
same,MIC vs clinical breakpoint (susceptibility),Clostridium septicum; Clostridium septicum 11-3571,+
same,MIC vs clinical breakpoint (susceptibility),Clostridium septicum; Clostridium septicum 15-847,+
same,MIC,"Clostridium septicum; strain 11-3571, anaerobic",16 mg/L
same,MIC,"Clostridium septicum; strain 15-847, anaerobic",32 mg/L
same,MIC vs clinical breakpoint (susceptibility),[1]; anaerobic (Table 17),+
same,MIC,"[1]; Peptostreptococcus anaerobius, anaerobic",16 mg/L
same,MIC,Streptococcus mutans,16 mg/L
same,MIC vs clinical breakpoint (susceptibility),"[2]; Bacteroides thetaiotaomicron VPI5482, anaerobic (Table 17)",−
same,MIC,[2]; Bacteroides thetaiotaomicron VPI 5842,>128 mg/L
same,MIC,"[2]; Bacteroides thetaiotaomicron, Bacteroides thetaiotaomicron VPI 5842",128 mg/L
same,MIC,"[2]; Bacteroides thetaiotaomicron, strain VPI5482 (Tables 1, 2) / VPI 5842 (other tables)",> 128 mg/L
same,MIC vs clinical breakpoint (susceptibility),Phocaeicola vulgatus; Phocaeicola vulgatus ATCC 8482,−
same,MIC vs clinical breakpoint (susceptibility),Phocaeicola vulgatus; Phocaeicola vulgatus ATCC 29327,−
same,MIC,"Phocaeicola vulgatus; Phocaeicola vulgatus, ATCC8482, strain ATCC 8482, anaerobic",> 128 mg/L
same,MIC,"Phocaeicola vulgatus; Phocaeicola vulgatus, ATCC29327, Phacoeicola vulgatus ATCC 29327, anaerobic",128 mg/L
same,MIC,"Phocaeicola vulgatus; Phocaeicola vulgatus, ATCC29327, strain ATCC 29327, anaerobic",> 128 mg/L
same,MIC,"Phocaeicola vulgatus; Phocaeicola vulgatus, ATCC29327, strain ATCC 29327, anaerobic, read-out: MIC",64 mg/L
same,MIC,"Phocaeicola vulgatus; Phocaeicola vulgatus, Phacoeicola vulgatus TCC 8482, anaerobic",> 128 mg/L
same,MIC,"Phocaeicola vulgatus; strain ATCC 8482, anaerobic",128 mg/L
same,MIC,[3]; Parabacteroides distasonis,> 128 mg/L
same,MIC,"[3]; Parabacteroides distasonis CLA 348, anaerobic",>128 mg/L
same,MIC,Porphyromonas gingivalis,> 128 mg/L
same,MIC,[4],16 mg/L
same,MIC,"Escherichia coli; ATCC25922, Escherichia coli ATCC 25922 (Table 15)",1 mg/L
same,MIC,"Escherichia coli; ATCC25922, strain ATCC 25922, aerobic",2 mg/L
same,MIC,Escherichia coli; Escherichia coli 846446,1 mg/L
same,MIC,Escherichia coli; Escherichia coli 854535,4 mg/L
same,MIC,Escherichia coli; Escherichia coli 976657,16 mg/L
same,MIC,"Escherichia coli; pH 5, Escherichia coli 857021, pH 5",2000 mg/L
same,MIC,"Escherichia coli; pH 7, Escherichia coli 857021, pH 7",32000 mg/L
same,MIC,"Escherichia coli; pH 7, Escherichia coli CDC-0089, pH 7",2000 mg/L
same,MIC,"Escherichia coli; pH 8, Escherichia coli 25922, pH 8",8000 mg/L
same,MIC,"Escherichia coli; pH 8, Escherichia coli 857021, pH 8",4000 mg/L
same,MIC,"Escherichia coli; pH 8, Escherichia coli CDC-0089, pH 8",64000 mg/L
same,MIC,"Escherichia coli; strain 846446, aerobic",2 mg/L
same,MIC,"Escherichia coli; strain 846450, aerobic",4 mg/L
same,MIC,"Escherichia coli; strain 854566, aerobic",16 mg/L
same,MIC,"Escherichia coli; strain 857021, aerobic",2 mg/L
same,MIC,"Escherichia coli; strain 863678, aerobic",2 mg/L
same,MIC,"Escherichia coli; strain 863696, aerobic",8 mg/L
same,MIC,"Escherichia coli; strain 928017, aerobic",2 mg/L
same,MIC,"Escherichia coli; strain 959117, aerobic",2 mg/L
same,MIC,"Escherichia coli; strain 961128, aerobic",2 mg/L
same,MIC,"Escherichia coli; strain 975811, aerobic",4 mg/L
same,MIC,"Escherichia coli; strain 976657, aerobic",4 mg/L
same,MIC,"Escherichia coli; strain 977941, aerobic",4 mg/L
same,MIC,"Escherichia coli; strain 996332, aerobic",4 mg/L
same,MIC,Acinetobacter baumannii,> 128 mg/L
same,MIC,"Acinetobacter baumannii; pH 7, Acinetobacter baumannii 918857, pH 7, read-out: MIC",64000 mg/L
same,MIC,"Acinetobacter baumannii; strain 843978, aerobic, read-out: MIC",8 mg/L
same,MIC,"Acinetobacter baumannii; strain 918857, aerobic, read-out: MIC",64 mg/L
same,MIC,"Acinetobacter baumannii; strain 919656, aerobic, read-out: MIC",8 mg/L
same,MIC,"Acinetobacter baumannii; strain 919899, aerobic, read-out: MIC",8 mg/L
same,MIC,"Acinetobacter baumannii; strain 938781, aerobic, read-out: MIC",16 mg/L
same,MIC,"Acinetobacter baumannii; strain 1049160, aerobic, read-out: MIC",8 mg/L
same,MIC,[5],> 128 mg/L
same,MIC,Lactobacillus paracasei,> 128 mg/L
same,MIC,Lactobacillus plantarum,> 128 mg/L
same,MIC,[6],> 128 mg/L
same,MIC,Pediococcus acidilactici,> 128 mg/L
same,MIC,Enterococcus faecium; pH 5,16000 mg/L
same,MIC,Enterococcus faecium; pH 8,64000 mg/L
same,MIC,[7],64000 mg/L
same,MIC,"[8]; Bacillus cereus, ATCC14579, pH 7, read-out: MIC",64000 mg/L
same,MIC,"[8]; Bacillus cereus, ATCC14579, pH 8, read-out: MIC",32000 mg/L
same,MIC,"[8]; Bacillus cereus, pH 5, read-out: MIC",4000 mg/L
same,MIC,"[8]; Bacillus subtilis, pH 5, read-out: MIC",64000 mg/L
same,MIC,"[8]; Yersinia pseudotuberculosis, ATCC6905, pH 7",64000 mg/L
same,MIC,"[8]; Yersinia pseudotuberculosis, pH 5",2000 mg/L
same,PAE,"Staphylococcus aureus; exposure μg/ml: F 16, D/S 1/19, V 4, F/D/S 4/0.25/4.75, F/D/S/V 2/0.125/2.38/0.5",0.5 h
same,PAE,"Staphylococcus aureus; exposure μg/ml: F 32, D/S 2/38, V 8, F/D/S 8/0.5/9,5, F/D/S/V 4/0.25/4.75/1",0.5 h
same,PAE,"Staphylococcus aureus; exposure μg/ml: F 64, D/S 4/64, V 16, F/D/S 16/1/19, F/D/S/V 8/0.5/9.5/2",0.5 h
